From ChEMBL document CHEMBL5241062, “Recent advances of dual FGFR inhibitors as a novel therapy for cancer” (Eur J Med Chem, 2021)
Values belong to the compound of their own block, whether it stands above or below them.

Tests used:
[1] = target: T1, Vascular endothelial growth factor receptor 2 (Homo sapiens, UniProt P35968); assay: Inhibition of N-terminal 6-His tagged recombinant VEGFR2 Kinase domain (unknown origin) expressed in baculovirus expression system incubated for 30 mins in the presence of [33p]-ATP by scintillation counting analysis
[2] = target: T2, Fibroblast growth factor receptor 1 (Homo sapiens, UniProt P11362); assay: Inhibition of N-terminal 6-His tagged recombinant FGFR1 Kinase domain (unknown origin) expressed in baculovirus expression system incubated for 30 mins in the presence of [33p]-ATP by scintillation counting analysis
[3] = target: T3, Platelet-derived growth factor receptor beta (Homo sapiens, UniProt P09619); assay: Inhibition of N-terminal 6-His tagged recombinant PDGFRbeta Kinase domain (unknown origin) expressed in baculovirus expression system incubated for 30 mins in the presence of [33p]-ATP by scintillation counting analysis
[4] = target: T2, Fibroblast growth factor receptor 1; assay: Inhibition of recombinant FGFR1 (unknown origin) in the presence of [p33]-ATP
[5] = target: T4, Fibroblast growth factor receptor 2 (Homo sapiens, UniProt P21802); assay: Inhibition of recombinant FGFR2 (unknown origin) in the presence of [p33]-ATP
[6] = target: T5, Fibroblast growth factor receptor 3 (Homo sapiens, UniProt P22607); assay: Inhibition of recombinant FGFR3 (unknown origin) in the presence of [p33]-ATP
[7] = target: T6, Fibroblast growth factor receptor 4 (Homo sapiens, UniProt P22455); assay: Inhibition of recombinant FGFR4 (unknown origin) in the presence of [p33]-ATP
[8] = target: T7, Vascular endothelial growth factor receptor 1 (Homo sapiens, UniProt P17948); assay: Inhibition of recombinant VEGFR1 (unknown origin) in the presence of [p33]-ATP
[9] = target: T1, Vascular endothelial growth factor receptor 2; assay: Inhibition of recombinant VEGFR2 (unknown origin) in the presence of [p33]-ATP
[10] = target: Vascular endothelial growth factor receptor 3 (Homo sapiens, UniProt P35916); assay: Inhibition of recombinant VEGFR3 (unknown origin) in the presence of [p33]-ATP
[11] = target: T8, Fibroblast growth factor receptor substrate 2 (Homo sapiens, UniProt Q8WU20); assay: Inhibition of FRS2 phosphorylation at Tyr196 residue in human NCI-H1581 cells incubated for 20 mins by electrochemiluminescence method; format: cell-based
T8 sequence (Q8WU20 whole entry): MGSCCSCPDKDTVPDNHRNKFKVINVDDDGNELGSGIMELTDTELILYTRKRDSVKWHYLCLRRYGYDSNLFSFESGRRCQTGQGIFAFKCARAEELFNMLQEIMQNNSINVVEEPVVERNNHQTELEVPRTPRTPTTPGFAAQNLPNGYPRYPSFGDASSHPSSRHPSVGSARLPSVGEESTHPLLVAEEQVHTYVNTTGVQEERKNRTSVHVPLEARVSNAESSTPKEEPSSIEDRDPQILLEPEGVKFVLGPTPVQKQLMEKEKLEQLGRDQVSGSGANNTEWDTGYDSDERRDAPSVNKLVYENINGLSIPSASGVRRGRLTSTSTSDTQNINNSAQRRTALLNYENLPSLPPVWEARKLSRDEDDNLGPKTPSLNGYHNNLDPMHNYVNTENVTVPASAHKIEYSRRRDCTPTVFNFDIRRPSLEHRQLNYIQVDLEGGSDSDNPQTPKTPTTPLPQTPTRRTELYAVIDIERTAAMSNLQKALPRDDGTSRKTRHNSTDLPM

[12] = target: T8, Fibroblast growth factor receptor substrate 2; assay: Inhibition of FRS2 phosphorylation at Tyr196 residue in human SNU-16 cells incubated for 20 mins by electrochemiluminescence method; format: cell-based
[13] = target: T8, Fibroblast growth factor receptor substrate 2; assay: Inhibition of FRS2 phosphorylation at Tyr196 residue in human RT-4 cells incubated for 20 mins by electrochemiluminescence method; format: cell-based
RT-4 [14] = assay: Antitumor activity against human RT-4 cells xenografted in mouse assessed as tumor growth inhibition at 20 mg/kg/day, po administered for 21 days relative to control; format: functional; conditions: RT-4, 504 h, time 21 day, read-out: TGI
RT-4 [15] = assay: Antitumor activity against human RT-4 cells xenografted in mouse assessed as tumor growth inhibition at 40 mg/kg/day, po administered for 21 days relative to control; format: functional; conditions: RT-4, 504 h, time 21 day, read-out: TGI
[16] = target: T9, Epidermal growth factor receptor (Homo sapiens, UniProt P00533); assay: Inhibition of EGFR (unknown origin) using biotin as substrate incubated for 1 hrs in the presence of ATP by HTRF assay
[17] = target: T6, Fibroblast growth factor receptor 4; assay: Inhibition of FGFR4 (unknown origin) using biotin as substrate incubated for 1 hrs in the presence of ATP by HTRF assay
[18] = target: T2, Fibroblast growth factor receptor 1; assay: Inhibition of FGFR1 (unknown origin) by Z'-LYTE Kinase assay
[19] = target: T4, Fibroblast growth factor receptor 2; assay: Inhibition of FGFR2 (unknown origin) by Z'-LYTE Kinase assay
[20] = target: T5, Fibroblast growth factor receptor 3; assay: Inhibition of FGFR3 (unknown origin) by Z'-LYTE Kinase assay
[21] = target: T6, Fibroblast growth factor receptor 4; assay: Inhibition of FGFR4 (unknown origin) by Z'-LYTE Kinase assay
[22] = target: T9, Epidermal growth factor receptor; assay: Inhibition of EGFR (unknown origin) by Z'-LYTE Kinase assay
[23] = target: T2, Fibroblast growth factor receptor 1; assay: Inhibition of recombinant FGFR1 (unknown origin) incubated for 60 mins by ELISA analysis
[24] = target: T4, Fibroblast growth factor receptor 2; assay: Inhibition of recombinant FGFR2 (unknown origin) incubated for 60 mins by ELISA analysis
[25] = target: T5, Fibroblast growth factor receptor 3; assay: Inhibition of recombinant FGFR3 (unknown origin) incubated for 60 mins by ELISA analysis
[26] = target: T7, Vascular endothelial growth factor receptor 1; assay: Inhibition of recombinant VEGFR1 (unknown origin) incubated for 60 mins by ELISA analysis
[27] = target: T1, Vascular endothelial growth factor receptor 2; assay: Inhibition of recombinant VEGFR2 (unknown origin) incubated for 60 mins by ELISA analysis
[28] = target: T3, Platelet-derived growth factor receptor beta; assay: Inhibition of recombinant PDGFRbeta (unknown origin) incubated for 60 mins by ELISA analysis
[29] = target: T10, Receptor-type tyrosine-protein kinase FLT3 (Homo sapiens, UniProt P36888); assay: Inhibition of His tagged recombinant human FLT3 (564 to 958 residues) expressed in baculovirus expression system incubated for […] in the presence of ATP by Z'-LYTE kinase assay
T10 sequence (P36888 whole entry): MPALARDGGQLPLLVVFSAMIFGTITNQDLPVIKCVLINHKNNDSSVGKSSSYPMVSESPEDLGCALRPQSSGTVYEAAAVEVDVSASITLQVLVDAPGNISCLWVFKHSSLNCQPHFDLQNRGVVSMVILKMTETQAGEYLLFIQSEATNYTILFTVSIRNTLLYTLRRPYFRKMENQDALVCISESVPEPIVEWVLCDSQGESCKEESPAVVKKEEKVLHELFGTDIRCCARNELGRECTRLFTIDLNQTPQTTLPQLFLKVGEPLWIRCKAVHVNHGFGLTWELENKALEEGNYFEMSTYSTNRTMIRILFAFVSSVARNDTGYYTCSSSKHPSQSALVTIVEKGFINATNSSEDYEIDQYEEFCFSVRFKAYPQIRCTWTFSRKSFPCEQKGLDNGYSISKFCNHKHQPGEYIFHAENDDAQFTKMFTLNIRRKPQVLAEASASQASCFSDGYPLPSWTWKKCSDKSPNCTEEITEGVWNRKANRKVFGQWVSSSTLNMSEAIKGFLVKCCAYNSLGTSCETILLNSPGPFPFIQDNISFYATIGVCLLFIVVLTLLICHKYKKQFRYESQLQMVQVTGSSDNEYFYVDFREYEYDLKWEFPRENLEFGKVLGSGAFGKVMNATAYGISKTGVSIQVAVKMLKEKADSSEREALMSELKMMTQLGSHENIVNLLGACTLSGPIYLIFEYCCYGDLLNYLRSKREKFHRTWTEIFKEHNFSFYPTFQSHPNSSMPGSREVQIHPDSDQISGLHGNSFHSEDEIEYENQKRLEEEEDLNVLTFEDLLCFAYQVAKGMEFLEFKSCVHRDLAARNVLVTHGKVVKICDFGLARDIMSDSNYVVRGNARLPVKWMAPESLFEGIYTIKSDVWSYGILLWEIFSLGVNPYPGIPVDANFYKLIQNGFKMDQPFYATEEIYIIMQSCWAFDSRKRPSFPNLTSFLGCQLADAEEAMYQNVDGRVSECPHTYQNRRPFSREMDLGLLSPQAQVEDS

[30] = target: Platelet-derived growth factor receptor alpha (Homo sapiens, UniProt P16234); assay: Inhibition of PDGFRalpha (unknown origin) incubated for […] in the presence of ATP by Z'-LYTE kinase assay
NCI-H1581 = assay: Antitumor activity against human NCI-H1581 cells assessed as tumor growth inhibition at 50 mg/kg, po administered for 14 days relative to control; format: functional; conditions: NCI-H1581, 336 h, time 14 day, read-out: TGI

T1 sequence (P35968 whole entry, the tested form may be a part): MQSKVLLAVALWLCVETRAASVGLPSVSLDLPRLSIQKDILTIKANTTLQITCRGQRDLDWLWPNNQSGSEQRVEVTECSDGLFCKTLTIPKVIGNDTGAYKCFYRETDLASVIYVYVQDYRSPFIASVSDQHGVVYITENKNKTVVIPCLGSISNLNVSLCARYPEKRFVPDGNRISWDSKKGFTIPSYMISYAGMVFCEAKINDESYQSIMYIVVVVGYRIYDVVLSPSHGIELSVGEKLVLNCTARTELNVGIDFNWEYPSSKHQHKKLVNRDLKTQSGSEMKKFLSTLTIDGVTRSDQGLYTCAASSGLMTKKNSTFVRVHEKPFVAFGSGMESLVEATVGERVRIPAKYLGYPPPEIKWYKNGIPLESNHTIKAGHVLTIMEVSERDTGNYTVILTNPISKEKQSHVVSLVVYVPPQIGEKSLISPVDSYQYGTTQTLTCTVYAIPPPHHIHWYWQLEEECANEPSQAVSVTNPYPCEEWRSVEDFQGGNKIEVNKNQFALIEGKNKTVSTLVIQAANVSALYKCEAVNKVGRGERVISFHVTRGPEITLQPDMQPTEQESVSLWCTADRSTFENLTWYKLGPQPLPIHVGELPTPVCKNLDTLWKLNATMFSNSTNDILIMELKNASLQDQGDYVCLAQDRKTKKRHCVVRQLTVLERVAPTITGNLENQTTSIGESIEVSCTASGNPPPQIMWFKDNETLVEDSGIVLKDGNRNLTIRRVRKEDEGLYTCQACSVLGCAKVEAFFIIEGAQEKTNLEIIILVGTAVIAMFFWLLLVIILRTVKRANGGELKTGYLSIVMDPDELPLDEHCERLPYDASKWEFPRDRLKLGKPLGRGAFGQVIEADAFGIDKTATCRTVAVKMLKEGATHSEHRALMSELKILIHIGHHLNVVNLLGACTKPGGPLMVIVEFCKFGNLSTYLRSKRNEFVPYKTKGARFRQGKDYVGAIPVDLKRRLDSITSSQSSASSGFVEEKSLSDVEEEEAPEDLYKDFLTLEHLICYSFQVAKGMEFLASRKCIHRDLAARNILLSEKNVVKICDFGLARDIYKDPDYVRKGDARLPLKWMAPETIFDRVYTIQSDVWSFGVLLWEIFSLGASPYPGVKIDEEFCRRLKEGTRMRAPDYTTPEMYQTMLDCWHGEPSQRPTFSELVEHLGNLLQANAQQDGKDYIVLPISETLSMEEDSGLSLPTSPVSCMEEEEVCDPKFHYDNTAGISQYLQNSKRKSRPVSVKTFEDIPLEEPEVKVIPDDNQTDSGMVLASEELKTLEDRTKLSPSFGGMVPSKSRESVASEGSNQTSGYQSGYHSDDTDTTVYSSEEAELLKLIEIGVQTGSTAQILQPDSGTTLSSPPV
T5 sequence (P22607 whole entry): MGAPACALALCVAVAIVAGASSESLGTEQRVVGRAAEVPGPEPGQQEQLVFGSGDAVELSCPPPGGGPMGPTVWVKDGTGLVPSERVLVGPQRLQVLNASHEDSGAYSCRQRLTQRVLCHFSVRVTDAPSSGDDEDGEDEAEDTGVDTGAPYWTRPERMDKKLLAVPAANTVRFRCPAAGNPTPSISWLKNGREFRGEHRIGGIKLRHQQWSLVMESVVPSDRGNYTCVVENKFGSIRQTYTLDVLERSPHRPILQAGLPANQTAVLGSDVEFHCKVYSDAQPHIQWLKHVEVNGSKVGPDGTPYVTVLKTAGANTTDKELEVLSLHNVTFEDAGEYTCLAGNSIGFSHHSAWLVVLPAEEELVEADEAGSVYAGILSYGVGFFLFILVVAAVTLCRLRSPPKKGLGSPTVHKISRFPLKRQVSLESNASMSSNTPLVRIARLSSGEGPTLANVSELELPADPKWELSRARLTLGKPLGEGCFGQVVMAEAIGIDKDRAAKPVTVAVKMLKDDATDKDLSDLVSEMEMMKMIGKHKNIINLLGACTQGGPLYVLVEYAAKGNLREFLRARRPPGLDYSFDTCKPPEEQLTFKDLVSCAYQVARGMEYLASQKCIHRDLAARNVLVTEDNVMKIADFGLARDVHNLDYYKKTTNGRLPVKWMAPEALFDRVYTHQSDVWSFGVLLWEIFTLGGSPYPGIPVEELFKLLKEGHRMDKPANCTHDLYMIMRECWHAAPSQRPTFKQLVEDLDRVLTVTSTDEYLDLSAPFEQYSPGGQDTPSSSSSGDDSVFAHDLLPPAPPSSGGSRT
T4 sequence (P21802 whole entry): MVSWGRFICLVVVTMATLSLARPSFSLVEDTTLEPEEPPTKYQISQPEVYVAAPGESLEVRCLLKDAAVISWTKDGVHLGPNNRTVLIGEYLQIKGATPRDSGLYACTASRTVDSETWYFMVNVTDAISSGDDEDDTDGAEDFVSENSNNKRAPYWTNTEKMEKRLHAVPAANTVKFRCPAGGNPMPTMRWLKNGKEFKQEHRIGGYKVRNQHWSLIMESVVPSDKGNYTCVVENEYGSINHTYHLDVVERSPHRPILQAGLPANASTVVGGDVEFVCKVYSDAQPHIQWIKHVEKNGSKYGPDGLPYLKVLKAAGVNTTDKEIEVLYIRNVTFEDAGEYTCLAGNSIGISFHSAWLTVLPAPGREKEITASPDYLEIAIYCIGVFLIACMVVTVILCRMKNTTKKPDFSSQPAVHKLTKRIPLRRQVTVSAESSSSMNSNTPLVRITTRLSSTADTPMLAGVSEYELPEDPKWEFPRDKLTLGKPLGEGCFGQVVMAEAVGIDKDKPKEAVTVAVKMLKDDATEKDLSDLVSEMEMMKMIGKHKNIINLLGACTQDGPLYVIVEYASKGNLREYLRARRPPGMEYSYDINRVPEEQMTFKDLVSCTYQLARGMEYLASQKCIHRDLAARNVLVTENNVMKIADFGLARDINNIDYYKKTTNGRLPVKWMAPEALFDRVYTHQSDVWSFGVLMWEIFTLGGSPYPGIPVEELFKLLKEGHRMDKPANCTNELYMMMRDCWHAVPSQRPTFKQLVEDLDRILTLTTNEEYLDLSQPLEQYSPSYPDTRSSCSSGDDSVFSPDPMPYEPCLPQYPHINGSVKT
T6 sequence (P22455 whole entry): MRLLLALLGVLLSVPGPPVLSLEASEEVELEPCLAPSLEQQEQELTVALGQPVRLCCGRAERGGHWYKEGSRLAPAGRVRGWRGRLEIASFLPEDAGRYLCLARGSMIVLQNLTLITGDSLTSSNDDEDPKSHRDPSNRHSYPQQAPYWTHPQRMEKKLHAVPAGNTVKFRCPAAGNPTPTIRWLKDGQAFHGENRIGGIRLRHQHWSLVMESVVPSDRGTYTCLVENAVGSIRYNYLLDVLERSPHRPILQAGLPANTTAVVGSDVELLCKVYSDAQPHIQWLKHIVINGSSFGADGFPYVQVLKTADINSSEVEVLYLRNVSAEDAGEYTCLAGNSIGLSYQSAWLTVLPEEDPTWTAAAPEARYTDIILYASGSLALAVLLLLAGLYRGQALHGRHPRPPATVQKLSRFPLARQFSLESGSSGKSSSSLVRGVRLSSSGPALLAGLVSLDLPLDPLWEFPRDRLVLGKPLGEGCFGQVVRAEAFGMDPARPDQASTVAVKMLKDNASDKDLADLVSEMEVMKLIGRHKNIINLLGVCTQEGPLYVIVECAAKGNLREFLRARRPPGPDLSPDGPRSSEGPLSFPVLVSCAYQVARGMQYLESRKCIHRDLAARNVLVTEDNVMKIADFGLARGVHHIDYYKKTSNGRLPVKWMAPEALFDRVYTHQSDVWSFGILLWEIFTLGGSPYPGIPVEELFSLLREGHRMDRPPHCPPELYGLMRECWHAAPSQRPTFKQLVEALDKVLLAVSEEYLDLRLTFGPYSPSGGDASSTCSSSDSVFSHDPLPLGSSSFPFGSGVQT
T2 sequence (P11362 whole entry, the tested form may be a part): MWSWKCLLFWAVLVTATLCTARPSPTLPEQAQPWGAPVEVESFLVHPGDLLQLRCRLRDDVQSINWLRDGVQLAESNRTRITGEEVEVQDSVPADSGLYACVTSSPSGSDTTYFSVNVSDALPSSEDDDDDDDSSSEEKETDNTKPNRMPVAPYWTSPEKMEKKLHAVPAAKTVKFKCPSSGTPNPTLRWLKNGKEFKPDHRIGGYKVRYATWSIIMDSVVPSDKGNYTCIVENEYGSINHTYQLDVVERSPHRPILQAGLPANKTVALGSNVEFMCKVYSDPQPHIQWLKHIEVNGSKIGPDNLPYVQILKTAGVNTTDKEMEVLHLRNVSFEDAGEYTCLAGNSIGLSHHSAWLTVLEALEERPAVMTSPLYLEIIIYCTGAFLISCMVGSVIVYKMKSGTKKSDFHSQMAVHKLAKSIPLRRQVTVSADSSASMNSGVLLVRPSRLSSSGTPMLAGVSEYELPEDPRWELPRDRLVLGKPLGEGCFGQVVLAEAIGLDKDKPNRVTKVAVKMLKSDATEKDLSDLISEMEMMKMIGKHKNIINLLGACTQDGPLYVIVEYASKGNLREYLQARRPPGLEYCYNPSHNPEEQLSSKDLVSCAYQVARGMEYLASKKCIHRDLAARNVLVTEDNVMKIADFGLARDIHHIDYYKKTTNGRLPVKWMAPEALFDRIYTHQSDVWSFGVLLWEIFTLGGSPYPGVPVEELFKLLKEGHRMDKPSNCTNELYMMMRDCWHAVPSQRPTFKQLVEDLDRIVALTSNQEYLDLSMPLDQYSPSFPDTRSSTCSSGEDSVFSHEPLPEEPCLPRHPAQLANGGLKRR

Compound: O=C(O)CCc1c(/C=C2\C(=O)Nc3ccc(F)cc32)[nH]c2c1C(=O)CCC2
IC50 [1]: 25 nM
IC50 [2]: 260 nM
IC50 [3]: 42 nM

Compound: Cn1cc(-c2ccc3c(c2)ncn3-c2cc(NS(=O)(=O)C3CC3)cc(-c3ccc(F)cc3F)c2)cn1
IC50 [4]: 11 nM
IC50 [5]: 16 nM
IC50 [6]: 6 nM
IC50 [7]: 35 nM
IC50 [8]: 26 nM
IC50 [9]: 9 nM
IC50 [10]: 5 nM
IC50 [11]: 93 nM
IC50 [12]: 59 nM
IC50 [13]: 89 nM
inhibition in vivo at 20 mg/kg/day (RT-4 [14]): 37%
inhibition in vivo at 40 mg/kg/day (RT-4 [15]): 92%

Compound: COc1cc(OC)c(Cl)c(-c2ccc3c(NC(=O)c4ccc(N5CCNC(C)(C)C5)cc4)n[nH]c3n2)c1Cl [SEGIGRATINIB]
inhibition in vivo at 50 mg/kg (NCI-H1581): 96.4%

More lines, now with the values ahead:

IC50 [16]: 86.2 nM
IC50 [17]: 83.9 nM
Compound: COc1cc2ncnc(Oc3ccc(NC(=O)Nc4cccc(C(F)(F)F)c4)c4ccccc34)c2cc1OC

IC50 [18]: 3 nM
IC50 [19]: 21 nM
IC50 [20]: 31 nM
IC50 [21]: 35 nM
IC50 [22]: 43 nM
Compound: C=CC(=O)Nc1ccc(CN(C(=O)Nc2c(Cl)c(OC)cc(OC)c2Cl)c2cc(Nc3ccc(N4CCN(C)CC4)cc3)ncn2)cc1

IC50 [23]: 1.8 nM
IC50 [24]: 1.9 nM
IC50 [25]: 6.9 nM
IC50 [26]: 5.6 nM
IC50 [27]: 1.2 nM
IC50 [28]: 7.8 nM
Compound: CNC(=O)c1cccc2cc(Oc3ccnc(NC(=O)c4ccc(N5CCN(CCO)CC5)cc4)c3)ccc12

IC50 [29]: 1.33 nM
IC50 [30]: 2.08 nM
Compound: Cc1ccc(C(=O)Nc2ccc(CN3CCN(C)CC3)c(C(F)(F)F)c2)cc1C#Cc1cnc2[nH]ncc2c1 [OLVEREMBATINIB]
